Measurements from patent US11046699B2, “Pyrazolo-pyrimidin-amino-cycloalkyl compounds and their therapeutic uses” (RAPT THERAPEUTICS, INC., priority 2018, dated 2021).
pIC50: −log10 of the molar value. Read-outs that look alike come from different tables or passages of the source.

Target: GCN2 (Homo sapiens, UniProt Q9P2K8)
Assay: GCN2 enzymatic endpoint assay: phosphorylation of GFP-eIF2α measured by TR-FRET (Lanthascreen)
Type: biochemical
How it was run: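 Endpoint GCN2 reaction with low ATP (2 μM) and 80 nM GFP-eIF2α, room temperature, 90 minutes. Detection mix with EDTA and Tb-labelled antibody; 520 nm/495 nm emission ratio reported.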

[1] = tested as described in Example 77, compound and/or hydrochloride, dihydrochloride or trifluoroacetic acid salt, read-out: IC 50 Activity
[2] = GCN2 biochemical IC50, 4 nM GCN2, 2 μM ATP, 80 nM GFP-eIF2α, 90 min RT, read-out: GCN2 activity

Chain of GCN2 (Q9P2K8 whole entry): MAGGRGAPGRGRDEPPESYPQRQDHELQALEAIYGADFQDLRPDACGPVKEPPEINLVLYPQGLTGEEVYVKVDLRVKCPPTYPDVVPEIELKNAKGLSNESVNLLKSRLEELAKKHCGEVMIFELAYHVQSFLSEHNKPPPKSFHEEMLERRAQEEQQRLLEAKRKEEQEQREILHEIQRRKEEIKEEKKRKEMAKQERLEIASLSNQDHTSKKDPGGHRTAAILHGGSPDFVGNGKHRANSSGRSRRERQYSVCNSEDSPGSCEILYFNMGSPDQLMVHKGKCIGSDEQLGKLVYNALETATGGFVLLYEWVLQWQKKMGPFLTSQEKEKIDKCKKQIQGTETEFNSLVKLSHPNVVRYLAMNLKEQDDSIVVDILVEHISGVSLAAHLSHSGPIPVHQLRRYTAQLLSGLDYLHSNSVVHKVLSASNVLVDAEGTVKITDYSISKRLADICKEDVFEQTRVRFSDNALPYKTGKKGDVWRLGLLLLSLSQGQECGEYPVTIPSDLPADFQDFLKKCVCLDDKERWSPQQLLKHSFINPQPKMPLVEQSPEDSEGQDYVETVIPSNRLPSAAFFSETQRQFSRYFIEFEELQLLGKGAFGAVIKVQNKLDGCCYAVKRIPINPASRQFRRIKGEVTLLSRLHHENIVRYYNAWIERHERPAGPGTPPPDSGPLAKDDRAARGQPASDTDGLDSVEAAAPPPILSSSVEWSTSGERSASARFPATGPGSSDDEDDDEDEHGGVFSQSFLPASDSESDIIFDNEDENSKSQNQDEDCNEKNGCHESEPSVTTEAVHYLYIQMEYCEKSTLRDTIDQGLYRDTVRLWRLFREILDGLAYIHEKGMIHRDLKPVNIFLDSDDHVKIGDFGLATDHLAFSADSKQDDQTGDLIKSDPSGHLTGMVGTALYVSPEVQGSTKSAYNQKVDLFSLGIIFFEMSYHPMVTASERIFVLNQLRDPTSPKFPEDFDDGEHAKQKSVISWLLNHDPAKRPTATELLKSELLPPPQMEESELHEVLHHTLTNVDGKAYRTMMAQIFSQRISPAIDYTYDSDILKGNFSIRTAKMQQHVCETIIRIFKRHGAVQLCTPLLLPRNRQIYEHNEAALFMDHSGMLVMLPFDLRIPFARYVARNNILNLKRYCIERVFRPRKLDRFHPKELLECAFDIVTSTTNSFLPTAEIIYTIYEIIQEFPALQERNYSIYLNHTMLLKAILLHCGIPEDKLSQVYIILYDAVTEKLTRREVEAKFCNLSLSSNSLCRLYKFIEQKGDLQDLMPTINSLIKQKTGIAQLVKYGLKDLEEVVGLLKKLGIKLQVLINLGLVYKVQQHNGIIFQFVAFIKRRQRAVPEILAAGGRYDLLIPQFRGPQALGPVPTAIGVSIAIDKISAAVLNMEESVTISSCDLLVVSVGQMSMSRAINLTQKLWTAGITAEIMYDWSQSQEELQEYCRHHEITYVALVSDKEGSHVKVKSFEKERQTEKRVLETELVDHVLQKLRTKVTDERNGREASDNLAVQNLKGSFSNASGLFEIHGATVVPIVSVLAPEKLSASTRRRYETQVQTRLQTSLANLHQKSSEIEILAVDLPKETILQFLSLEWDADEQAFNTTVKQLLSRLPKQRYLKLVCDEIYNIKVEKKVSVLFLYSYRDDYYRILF

| Compound | pIC50 [1] | pIC50 [2] |
| --- | --- | --- |
| CNC(=O)[C@]1(C)CC[C@@H](Nc2ncc3c(Br)nn(-c4ccc5c(c4)C(=O)C(=O)N5)c3n2)C1 [(1R,3R)-3-[[3-bromo-1-(2,3-dioxo-indolin-5-yl)pyrazolo[3,4-d]pyrimidin-6-yl]amino]-N,1-dimethyl-cyclo-pentanecarboxamide] | 6.70 to 7.60 | – |
| CNS(=O)(=O)C1CC[C@@H](Nc2ncc3c(Br)nn(-c4ccc(-c5nnc(C)s5)c(C#N)c4)c3n2)C1 (stereo partly drawn) [(3R)-3-[[3-bromo-1-[3-cyano-4-(5-methyl-1,3,4-thiadiazol-2-yl)phenyl]pyrazolo[3,4-d]pyrimidin-6-yl]amino]-N-methyl-cyclopentanesulfonamide] | 6.70 to 7.60 | – |
| CNC(=O)[C@]1(C)CC[C@@H](Nc2ncc3c(Br)nn(-c4ccc5ncsc5c4)c3n2)C1 [(1R,3R)-3-[[1-(1,3-benzothiazol-6-yl)-3-bromo-pyrazolo[3,4-d]pyrimidin-6-yl]amino]-N,1-dimethyl-cyclopentane-carboxamide] | 6.70 to 7.60 | – |
| CNC(=O)[C@]1(C)CC[C@@H](Nc2ncc3c(Br)nn(-c4cccc(Oc5ccncc5)c4)c3n2)C1 [(1R,3R)-3-[[3-bromo-1-[3-(4-pyridyloxy)phenyl]pyrazolo[3,4-d]pyrimidin-6-yl]amino]-N,1-dimethyl-cyclopentane-carboxamide] | 6.70 to 7.60 | – |
| CNC(=O)[C@]1(C)CC[C@@H](Nc2ncc3c(Br)nn(-c4ccc(-c5nnc(CCOC)o5)cc4)c3n2)C1 [(1R,3R)-3-[[3-bromo-1-[4-[5-(2-methoxy-ethyl)-1,3,4-oxadiazol-2-yl]phenyl]pyrazolo [3,4-d]pyrimidin-6-yl]amino]-N,1-dimethyl-cyclopentanecarboxamide] | > 7.60 | – |
| Cc1nnc(-c2ccc(-n3nc(Br)c4cnc(N[C@@H]5CCC(C)(C(=O)N6CCOCC6)C5)nc43)cc2)o1 (stereo partly drawn) [[(3R)-3-[[3-bromo-1-[4-(5-methyl-1,3,4-oxadiazol-2-yl)phenyl]pyrazolo[3,4-d]pyrimidin-6-yl]amino]-1-methyl-cyclopentyl]-morpholino-methanone] | 6.70 to 7.60 | – |
| CNC(=O)[C@]1(C)CC[C@@H](Nc2ncc3c(Br)nn(-c4ccc5nc(NC)ncc5c4)c3n2)C1 | 6.70 to 7.60 | – |
| CN(C)C(=O)N1CC[C@@H](Nc2ncc3c(Br)nn(-c4ccc5ncccc5c4)c3n2)C1 [(R)-3-((3-bromo-1-(quinolin-6-yl)-1H-pyrazolo [3,4-d]pyrimidin-6-yl)amino)-N,N-dimethyl-pyrrolidine-1-carboxamide] | 6.00 to 6.30 | – |
| COC(C)(C)CN(C)C(=O)[C@]1(C)CC[C@@H](Nc2ncc3c(Br)nn(-c4cc(F)c5ncccc5c4)c3n2)C1 [(1R,3R)-3-[[3-bromo-1-(8-fluoro-6-quinolyl)pyrazolo[3,4-d]pyrimidin-6-yl]amino]-N-(2-methoxy-2-methyl-propyl)-N,1-dimethyl-cyclopentanecarboxamide] | > 7.60 | – |
| CNC(=O)[C@]1(C)CC[C@@H](Nc2ncc3c(Br)nn(-c4ccc5c(c4)CCC(=O)N5CC(F)F)c3n2)C1 [(1R,3R)-3-[[3-bromo-1-[1-(2,2-difluoro-ethyl)-2-oxo-3,4-dihydroquinolin-6-yl]pyrazolo[3,4-d]pyrimidin-6-yl]amino]-N,1-dimethyl-cyclopentanecarboxamide] | 6.70 to 7.60 | – |
| CNC(=O)[C@]1(C)CC[C@@H](Nc2ncc3c(Br)nn(-c4cc(Cl)cc(CO)c4)c3n2)C1 [Example 46, (1R,3R)-3-((3-bromo-1-(3-chloro-5-(hydroxymethyl)phenyl)-1H-pyrazolo[3,4-d]pyrimidin-6-yl)amino)-N,1-dimethylcyclopentane-1-carboxamide; 2,2,2-trifluoroacetic acid] | – | 6.70 to 7.60 |
| CNC(=O)[C@]1(C)CC[C@@H](Nc2ncc3c(Br)nn(-c4ccc(-c5nnc(C(C)(C)N)o5)cc4)c3n2)C1 [Example 47, (1R,3R)-3-((1-(4-(5-(2-aminopropan-2-yl)-1,3,4-oxadiazol-2-yl)phenyl)-3-bromo-1H-pyrazolo[3,4-d]pyrimidin-6-yl)amino)-N,1-dimethylcyclopentane-1-carboxamide; 2,2,2-trifluoroacetic acid] | – | 6.70 to 7.60 |
| CNC(=O)[C@]1(C)CC[C@@H](Nc2ncc3c(Br)nn(-c4cc(C#N)cc(OCCO)c4)c3n2)C1 [(1R,3R)-3-[[3-bromo-1-[3-cyano-5-(2-hydroxyethoxy)phenyl]pyrazolo[3,4-d]pyrimidin-6-yl]amino]-N,1-dimethyl-cyclopentanecarboxamide] | 6.70 to 7.60 | – |
| CNC(=O)[C@]1(C)CC[C@@H](Nc2ncc3c(Br)nn(-c4ccc5c(c4)CN(C(=O)C4CNC4)C5)c3n2)C1 [(1R,3R)-3-[[1-[2-(azetidine-3-carbonyl)isoindolin-5-yl]-3-bromo-pyrazolo[3,4-d]pyrimidin-6-yl]amino]-N,1-dimethyl-cyclopentanecarboxamide] | 6.70 to 7.60 | – |
| Cc1nnc(-c2ccc(-n3nc(Br)c4cnc(N[C@@H]5CC[C@@H](C(=O)N6CCNC(=O)C6)C5)nc43)cc2)o1 [Example 22, 4-((1R,3R)-3-((3-bromo-1-(4-(5-methyl-1,3,4-oxadiazol-2-yl)phenyl)-1H-pyrazolo[3,4-d]pyrimidin-6-yl)amino)cyclopentane-1-carbonyl)piperazin-2-one] | – | 6.70 to 7.60 |
| CNC(=O)[C@]1(C)CC[C@@H](Nc2ncc3c(Br)nn(-c4ccc(-c5nnc(C)s5)c(CCC(=O)O)c4)c3n2)C1 [3-[5-[3-bromo-6-[[(1R,3R)-3-methyl-3-(methylcarbamoyl)cyclopentyl]amino]pyrazolo[3,4-d]pyrimidin-1-yl]-2-(5-methyl-1,3,4-thiadiazol-2-yl)phenyl] propanoic acid] | 6.70 to 7.60 | – |
| COCCNC(=O)[C@@H]1CCC[C@@H](Nc2ncc3c(Br)nn(-c4ccc5ncccc5c4)c3n2)C1 [Example 20, (1R,3R)-3-((3-bromo-1-(quinolin-6-yl)-1H-pyrazolo[3,4-d]pyrimidin-6-yl)amino)-N-(2-methoxyethyl)cyclohexane-1-carboxamide] | – | 6.00 to 6.30 |
| CN1CCN(C(=O)[C@@H]2CC[C@@H](Nc3ncc4c(Br)nn(-c5cnc6c(Cl)nccc6c5)c4n3)C2)CC1=O [4-((1R,3R)-3-((3-bromo-1-(8-chloro-1,7-naphthyridin-3-yl)-1H-pyrazolo[3,4-d]pyrimidin-6-yl)amino)cyclopentane-1-carbonyl)-1-methylpiperazin-2-one] | 6.70 to 7.60 | – |
| O=C(NCCO)[C@@H]1CC[C@@H](Nc2ncc3c(Br)nn(-c4ccc5ncccc5c4)c3n2)C1 [(1R,3R)-3-((3-bromo-1-(quinolin-6-yl)-1H-pyrazolo[3,4-d]pyrimidin-6-yl)amino)-N-(2-hydroxyethyl)cyclopentane-1-carboxamide] | 6.70 to 7.60 | – |
| CNC(=O)[C@]1(C)CC[C@@H](Nc2ncc3c(Br)nn(-c4cc(C5CCCO5)c5ncccc5c4)c3n2)C1 (stereo partly drawn) [(1R,3R)-3-[[3-bromo-1-(8-tetrahydrofuran-2-yl-6-quinolyl)pyrazolo[3,4-d]pyrimidin-6-yl]amino]-N,1-dimethyl-cyclopentane-carboxamide] | 6.70 to 7.60 | – |
| NC(=O)C1(NC(=O)[C@@H]2CC[C@@H](Nc3ncc4c(Br)nn(-c5cc(F)c6ncccc6c5)c4n3)C2)CC1 [(1R,3R)-3-[[3-bromo-1-(8-fluoro-6-quinolyl)pyrazolo[3,4-d]pyrimidin-6-yl]amino]-N-(1-carbamoylcyclopropyl)cyclopentane-carboxamide] | 6.70 to 7.60 | – |
| CNC(=O)[C@]1(C)CC[C@@H](Nc2ncc3c(Br)nn(-c4cnc5c(c4)OCC(=O)N5C)c3n2)C1 [(1R,3R)-3-[[3-bromo-1-(4-methyl-3-oxo-pyrido[3,2-b][1,4]oxazin-7-yl)pyrazolo [3,4-d]pyrimidin-6-yl]amino]-N,1-dimethyl-cyclopentanecarboxamide] | 6.70 to 7.60 | – |
| CNC(=O)[C@]1(C)CC[C@@H](Nc2ncc3c(Br)nn(-c4ccc5nc(N)nc(N)c5c4)c3n2)C1 [(1R,3R)-3-[[3-bromo-1-(2,4-diamino-quinazolin-6-yl)pyrazolo[3,4-d]pyrimidin-6-yl]amino]-N,1-dimethyl-cyclopentane-carboxamide; 2,2,2-trifluoroacetic acid] | 6.70 to 7.60 | – |
| CNC(=O)[C@@H]1CC[C@@H](Nc2ncc3c(Br)nn(-c4ccc5ncccc5c4)c3n2)C1 [(1R,3R)-3-[[3-bromo-1-(6-quinolyl)pyrazolo[3,4-d]pyrimidin-6-yl]amino]-N-methyl-cyclopentanecarboxamide] | 6.70 to 7.60 | – |
| CNC(=O)C1(C)CC[C@@H](Nc2ncc3c(Br)nn(-c4cc(Cl)cc(C(N)=O)c4)c3n2)C1 (stereo partly drawn) [3-[3-bromo-6-[[(1R)-3-methyl-3-(methylcarbamoyl)cyclopentyl]amino]pyrazolo[3,4-d]pyrimidin-1-yl]-5-chloro-benzamide] | > 7.60 | – |
| CN=S(C)(=O)CCNC(=O)[C@@H]1CC[C@@H](Nc2ncc3c(Br)nn(-c4cc(F)c5ncccc5c4)c3n2)C1 (stereo partly drawn) [(1R,3R)-3-((3-bromo-1-(8-fluoroquinolin-6-yl)-1H-pyrazolo[3,4-d]pyrimidin-6-yl)amino)-N-(2-(N,S-dimethylsulfonimidoyl)ethyl)cyclopentane-1-carboxamide] | > 7.60 | – |
| O=C([C@@H]1CC[C@@H](Nc2ncc3c(Br)nn(-c4cc(F)c5ncccc5c4)c3n2)C1)N1CCNC(C(F)(F)F)C1 (stereo partly drawn) [[(1R,3R)-3-[[3-bromo-1-(8-fluoro-6-quinolyl)pyrazolo[3,4-d]pyrimidin-6-yl]amino]cyclo-pentyl]-[3-(trifluoromethyl)piperazin-1-yl] methanone] | 6.70 to 7.60 | – |
| CNC(=O)[C@]1(C)CC[C@@H](Nc2ncc3c(Br)nn(-c4cc(C#N)c5ncccc5c4)c3n2)C1 (single isomer, unassigned) [Example 23] | – | > 7.60 |
| O=S(=O)([C@@H]1CC[C@@H](Nc2ncc3c(Br)nn(-c4ccc5ncccc5c4)c3n2)C1)N1CCOCC1 [3-bromo-N-((1R,3R)-3-(morpholinosulfonyl)cyclopentyl)-1-(quinolin-6-yl)-1H-pyrazolo [3,4-d]pyrimidin-6-amine] | 6.30 to 6.70 | – |
| O=C([C@@H]1CC[C@@H](Nc2ncc3c(Br)nn(-c4ccc5ncccc5c4)c3n2)C1)N1CCOCC1 [((1R,3R)-3-((3-bromo-1-(quinolin-6-yl)-1H-pyrazolo[3,4-d]pyrimidin-6-yl)amino)cyclo-pentyl)(morpholino)methanone] | 6.70 to 7.60 | – |
